According to patent US20180098969A1, “HODGKIN LYMPHOMA THERAPY” (Purdue Pharmaceutical Products L.P., priority 2016, published 2018):

Columns and labels:
[1] = tested on: L428 cells; assay: Xenograft in NSG mice, HE staining and immunohistochemistry; assay type: in vivo; conditions: for Injection site: Tumour cell necrosis/apoptosis: Marked / Injection site: Tumour cell necrosis/apoptosis: Mild / Injection site: Tumour cell necrosis/apoptosis: Minimal / Injection site: Tumour cell necrosis/apoptosis: Moderate / Injection site: Tumour cell necrosis/apoptosis: No / Injection site: Tumour cell necrosis/apoptosis: Overall / Injection site: Tumour cell necrosis/apoptosis: Severe / Injection site: Tumour infiltration: Marked / Injection site: Tumour infiltration: Mild / Injection site: Tumour infiltration: Minimal / Injection site: Tumour infiltration: Moderate / Injection site: Tumour infiltration: No / Injection site: Tumour infiltration: Overall / Injection site: Tumour infiltration: Severe / Liver: Tumour infiltration: Marked / Liver: Tumour infiltration: Mild / Liver: Tumour infiltration: Minimal / Liver: Tumour infiltration: Moderate / Liver: Tumour infiltration: No / Liver: Tumour infiltration: Overall / Liver: Tumour infiltration: Severe / Tumour presence: Animals with tumour infiltration in liver and in the injection area / Tumour presence: Overall / Liver: Tumour cell necrosis/apoptosis: Marked / Liver: Tumour cell necrosis/apoptosis: Mild / Liver: Tumour cell necrosis/apoptosis: Minimal / Liver: Tumour cell necrosis/apoptosis: Moderate / Liver: Tumour cell necrosis/apoptosis: No / Liver: Tumour cell necrosis/apoptosis: Overall / Liver: Tumour cell necrosis/apoptosis: Severe: % of mice
Text: Immunodeficient NOD-SCID-gammac−/− (NSG) mice aged 5 to 6 weeks were purchased from Charles River (NOD.Cg-Prkdcscid Il2rgtm1Wjl/SzJ). The mice arrived two weeks before the beginning of the experiments and were housed in micro-isolator cages during the entire course of the study. Immediately prior to the injection of Hodgkin lymphoma cells, mice were exposed to 3 Gy gamma irradiation using an IBL637 ^137Cs irradiator at a dose rate of 0.61 Gy/min. From 10^3 to 10^6 cells, either from the original cell lines or following amplification, were injected intravenously via the retro-orbital sinus. The mice were sacrificed by cervical dislocation and different organs were analysed and tumoural infiltration examined using multiple techniques.
Two independent experiments were performed to investigate the dose-effect of EDO-S101 in NSG mice eight weeks after xenografting with L428 cells as in Example 8. The aim of the protocol shown in FIG. […]
The mice were sacrificed by cervical dislocation. The sampled organs consisted of the eyes (site of injection), liver, spleen and bone marrow. Following dissection of different organs, including tumours, the first portion was used for flow cytometry (FACS) and cytogenetic analyses while the second was fixed in 4% paraformaldehyde (PFA) for immunohistochemistry (IHC). To obtain a single cell suspension, the tissues were first cut into pieces. Thereafter, the cells were physically disaggregated using an 80 μm nylon cell strainer and filtered a second time through a 70 μm nylon cell strainer (BD Biosciences, Erembodegem, Belgium).
Organs were fixed in 4% PFA, trimmed and post-fixed in 70° ethanol. They were then briefly processed using a vacuum inclusion processor and paraffin blocks were prepared. Five micrometer-thick sections were cut from these blocks and the resulting sections were stained with hemotoxylin-eosine (H&E) for histopathological analysis. In addition, IHC was carried out on of the totality of liver and spleen specimens for confirmation of the spread of engrafted cells. The search for single cells or small groups of grafted Hodgkin lymphoma cells was performed using an anti-CD30 antibody (DAKO, France; 1:40, EDTA pH9 pre-treatment) and the Ventana Discovery XT IHC system. Apoptosis and tumour necrosis were analysed.
Microscopic findings were assigned a severity score based upon the following scale: “0”=within physiological limits, “1”=minimal, “2”=mild, “3”=moderate, “4”=marked, “5”=severe. This severity score was attributed according to the size and number of observed lesions.

[2] = tested on: L428 cells; assay: Orbital tumour mass at injection site in xenografted mice; assay type: in vivo, NSG mice; conditions: after injection
Procedure: Two independent experiments were performed to investigate the dose-effect of EDO-S101 in NSG mice eight weeks after xenografting with L428 cells as in Example 8. The aim of the protocol shown in FIG. 8B was to evaluate the effect of sequential treatment with a moderate dose of 60 mg/kg given at an interval of three weeks.
Some mice developed an orbital tumour mass at the site of the injection. […] In one mouse only that was treated with two doses of 60 mg/kg of EDO-S101, a regression of the orbital tumour was initially observed followed by re-establishment of the orbital mass 3 weeks later. However, this was the only instance observed of re-establishment of the orbital mass after treatment with EDO-S101 at either concentration.

[3] = tested on: L1236 cell line; assay: Cell cycle checkpoint proteins and gene expression; assay type: cell-based, human; conditions: EDO-S101 alone
Procedure: 1.56 μM of EDO-S101 was administered to two Hodgkin lymphoma cell lines, the bendamustine naïve cell line L1236 and the bendamustine resistant cell line R100. In a second experiment, Brentuximab Vedotin was administered at a concentration of 3.12 μg/ml to the L1236 cell line and at a concentration of 0.39 μg/ml to the R100 cell line. Finally, in a third experiment EDO-S101 and Brentuximab Vedotin were administered in combination to each of the two cell lines at the same concentrations that they were administered in the monotherapy experiments.

[4] = two doses of 60 mg/kg three weeks apart

Cn1c(CCCCCCC(=O)NO)nc2cc(N(CCCl)CCCl)ccc21 [EDO-S101]
tumour masses in liver and infiltration into other organs ([1]; 80 mg/kg): No tumour masses were observed in the liver, nor was infiltration observed into the other organs | tumour cell necrosis ([1]; 80 mg/kg or 60 mg/kg): No cell necerosis was observed | Injection site: Tumour cell necrosis/apoptosis: Marked ([1]; 80 mg/kg): 0.0% | Injection site: Tumour cell necrosis/apoptosis: Mild ([1]; 80 mg/kg): 0.0% | Injection site: Tumour cell necrosis/apoptosis: Minimal ([1]; 80 mg/kg): 0.0% | Injection site: Tumour cell necrosis/apoptosis: Moderate ([1]; 80 mg/kg): 0.0% | Injection site: Tumour cell necrosis/apoptosis: No ([1]; 80 mg/kg): 0.0% | Injection site: Tumour cell necrosis/apoptosis: Overall ([1]; 80 mg/kg): 100.0% | Injection site: Tumour cell necrosis/apoptosis: Severe ([1]; 80 mg/kg): 0.0% | Injection site: Tumour infiltration: Marked ([1]; 80 mg/kg): 0.0% | Injection site: Tumour infiltration: Mild ([1]; 80 mg/kg): 0.0% | Injection site: Tumour infiltration: Minimal ([1]; 80 mg/kg): 0.0% | Injection site: Tumour infiltration: Moderate ([1]; 80 mg/kg): 0.0% | Injection site: Tumour infiltration: No ([1]; 80 mg/kg): 0.0% | Injection site: Tumour infiltration: Overall ([1]; 80 mg/kg): 33.3% | Injection site: Tumour infiltration: Severe ([1]; 80 mg/kg): 33.3% | Liver: Tumour infiltration: Marked ([1]; 80 mg/kg): 0.0% | Liver: Tumour infiltration: Mild ([1]; 80 mg/kg): 0.0% | Liver: Tumour infiltration: Minimal ([1]; 80 mg/kg): 0.0% | Liver: Tumour infiltration: Moderate ([1]; 80 mg/kg): 0.0% | Liver: Tumour infiltration: No ([1]; 80 mg/kg): 100.0% | Liver: Tumour infiltration: Overall ([1]; 80 mg/kg): 0.0% | Liver: Tumour infiltration: Severe ([1]; 80 mg/kg): 0.0% | Tumour presence: Animals with tumour infiltration in liver and in the injection area ([1]; 80 mg/kg): 0.0% | Tumour presence: Overall ([1]; 80 mg/kg): 33.3% | Injection site: Tumour cell necrosis/apoptosis: Marked ([1]; 1 * 60 mg/kg): 0.0% | Injection site: Tumour cell necrosis/apoptosis: Mild ([1]; 1 * 60 mg/kg): 0.0% | Injection site: Tumour cell necrosis/apoptosis: Minimal ([1]; 1 * 60 mg/kg): 50.0% | Injection site: Tumour cell necrosis/apoptosis: Moderate ([1]; 1 * 60 mg/kg): 0.0% | Injection site: Tumour cell necrosis/apoptosis: No ([1]; 1 * 60 mg/kg): 50.0% | Injection site: Tumour cell necrosis/apoptosis: Overall ([1]; 1 * 60 mg/kg): 100.0% | Injection site: Tumour cell necrosis/apoptosis: Severe ([1]; 1 * 60 mg/kg): 0.0% | Injection site: Tumour infiltration: Marked ([1]; 1 * 60 mg/kg): 50.0% | Injection site: Tumour infiltration: Mild ([1]; 1 * 60 mg/kg): 0.0% | Injection site: Tumour infiltration: Minimal ([1]; 1 * 60 mg/kg): 0.0% | Injection site: Tumour infiltration: Moderate ([1]; 1 * 60 mg/kg): 25.0% | Injection site: Tumour infiltration: No ([1]; 1 * 60 mg/kg): 0.0% | Injection site: Tumour infiltration: Overall ([1]; 1 * 60 mg/kg): 100.0% | Injection site: Tumour infiltration: Severe ([1]; 1 * 60 mg/kg): 25.0% | Liver: Tumour cell necrosis/apoptosis: Marked ([1]; 1 * 60 mg/kg): 0.0% | Liver: Tumour cell necrosis/apoptosis: Mild ([1]; 1 * 60 mg/kg): 0.0% | Liver: Tumour cell necrosis/apoptosis: Minimal ([1]; 1 * 60 mg/kg): 0.0% | Liver: Tumour cell necrosis/apoptosis: Moderate ([1]; 1 * 60 mg/kg): 0.0% | Liver: Tumour cell necrosis/apoptosis: No ([1]; 1 * 60 mg/kg): 100.0% | Liver: Tumour cell necrosis/apoptosis: Overall ([1]; 1 * 60 mg/kg): 0.0% | Liver: Tumour cell necrosis/apoptosis: Severe ([1]; 1 * 60 mg/kg): 0.0% | Liver: Tumour infiltration: Marked ([1]; 1 * 60 mg/kg): 0.0% | Liver: Tumour infiltration: Mild ([1]; 1 * 60 mg/kg): 25.0% | Liver: Tumour infiltration: Minimal ([1]; 1 * 60 mg/kg): 25.0% | Liver: Tumour infiltration: Moderate ([1]; 1 * 60 mg/kg): 25.0% | Liver: Tumour infiltration: No ([1]; 1 * 60 mg/kg): 25.0% | Liver: Tumour infiltration: Overall ([1]; 1 * 60 mg/kg): 75.0% | Liver: Tumour infiltration: Severe ([1]; 1 * 60 mg/kg): 0.0% | Tumour presence: Animals with tumour infiltration in liver and in the injection area ([1]; 1 * 60 mg/kg): 75.0% | Tumour presence: Overall ([1]; 1 * 60 mg/kg): 100.0% | Injection site: Tumour cell necrosis/apoptosis: Marked ([1]; 2 * 60 mg/kg): 33.3% | Injection site: Tumour cell necrosis/apoptosis: Mild ([1]; 2 * 60 mg/kg): 66.7% | Injection site: Tumour cell necrosis/apoptosis: Minimal ([1]; 2 * 60 mg/kg): 0.0% | Injection site: Tumour cell necrosis/apoptosis: Moderate ([1]; 2 * 60 mg/kg): 0.0% | Injection site: Tumour cell necrosis/apoptosis: No ([1]; 2 * 60 mg/kg): 0.0% | Injection site: Tumour cell necrosis/apoptosis: Overall ([1]; 2 * 60 mg/kg): 100.0% | Injection site: Tumour cell necrosis/apoptosis: Severe ([1]; 2 * 60 mg/kg): 0.0% | Injection site: Tumour infiltration: Marked ([1]; 2 * 60 mg/kg): 11.1% | Injection site: Tumour infiltration: Mild ([1]; 2 * 60 mg/kg): 0.0% | Injection site: Tumour infiltration: Minimal ([1]; 2 * 60 mg/kg): 0.0% | Injection site: Tumour infiltration: Moderate ([1]; 2 * 60 mg/kg): 0.0% | Injection site: Tumour infiltration: No ([1]; 2 * 60 mg/kg): 0.0% | Injection site: Tumour infiltration: Overall ([1]; 2 * 60 mg/kg): 11.1% | Injection site: Tumour infiltration: Severe ([1]; 2 * 60 mg/kg): 0.0% | Liver: Tumour cell necrosis/apoptosis: Marked ([1]; 2 * 60 mg/kg): 0.0% | Liver: Tumour cell necrosis/apoptosis: Mild ([1]; 2 * 60 mg/kg): 0.0% | Liver: Tumour cell necrosis/apoptosis: Minimal ([1]; 2 * 60 mg/kg): 0.0% | Liver: Tumour cell necrosis/apoptosis: Moderate ([1]; 2 * 60 mg/kg): 0.0% | Liver: Tumour cell necrosis/apoptosis: No ([1]; 2 * 60 mg/kg): 100.0% | Liver: Tumour cell necrosis/apoptosis: Overall ([1]; 2 * 60 mg/kg): 0.0% | Liver: Tumour cell necrosis/apoptosis: Severe ([1]; 2 * 60 mg/kg): 0.0% | Liver: Tumour infiltration: Marked ([1]; 2 * 60 mg/kg): 0.0% | Liver: Tumour infiltration: Mild ([1]; 2 * 60 mg/kg): 11.1% | Liver: Tumour infiltration: Minimal ([1]; 2 * 60 mg/kg): 33.3% | Liver: Tumour infiltration: Moderate ([1]; 2 * 60 mg/kg): 0.0% | Liver: Tumour infiltration: No ([1]; 2 * 60 mg/kg): 55.6% | Liver: Tumour infiltration: Overall ([1]; 2 * 60 mg/kg): 44.4% | Liver: Tumour infiltration: Severe ([1]; 2 * 60 mg/kg): 0.0% | Tumour presence: Animals with tumour infiltration in liver and in the injection area ([1]; 2 * 60 mg/kg): 0.0% | Tumour presence: Overall ([1]; 2 * 60 mg/kg): 55.6% | severity of tumoural cell infiltration ([1]; single 60 or 80 mg/kg or two injections of 60 mg/kg): significant decrease in the severity of tumoural cell infiltration | tumour regression ([1]; single dose of 60 mg/kg): significant tumour regression | mice with tumour lesions ([1]; single dose of 60 mg/kg, 60 mg/kg): only one mouse had moderate tumour lesions | tumour regression ([1]; two administrations of 60 mg/kg, versus control and single 60 mg/kg): Significant tumour regression | infiltration in the liver [1, 4]: Only one mouse exhibited a moderate level of infiltration in the liver | tumours in organs (liver, spleen, bone marrow) [1, 4]: No tumours were observed in any organs | orbital tumour mass [2]: signification regression | effect on cell cycle checkpoint proteins [3]: activated cell cycle checkpoint proteins
